TGI data for six compounds are collected here from PubChem BioAssay (NCI).

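The compound was tested at five concentrations on cells cultured in 96-well plates, with a 48-hour exposure period. TGI: total growth inhibition.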 A value given as a limit tells only on which side of the number the result lay.

Some test systems named below: EKVX NSCLC; ACHN renal; LOX IMVI melanoma; SNB-19 CNS; PC-3 prostate; SF-539 CNS; UACC-62 melanoma; OVCAR-8 ovarian; HS 578T breast; TK-10 renal; NCI-H522 lung; OVCAR-3 ovarian; HOP-92 NSCLC; SF-268 CNS; MDA-MB-435; HOP-62 NSCLC; HL-60(TB) leukemia; M14 melanoma.
What all share (assay): DTP human tumour cell line panel, 48 h

Turning to `C#CCOC(=O)C(N)CC(N)=O` (stereo unspecified), the concentration for total growth inhibition (TGI) in the test on EKVX NSCLC, in the test with ACHN renal, with LOX IMVI melanoma, in the test with SNB-19 CNS, in the test on PC-3 prostate and in the test with SF-539 CNS was more than 100 µM in each case. Besides, the total growth inhibition concentration (TGI) in the test on UACC-62 melanoma, in the test on OVCAR-8 ovarian, in the test on HS 578T breast, in the test on TK-10 renal, in the test with NCI-H522 lung and in the test on OVCAR-3 ovarian was more than 100 µM in each case. Moreover, the TGI in the test with HOP-92 NSCLC, with SF-268 CNS, in the test on MDA-MB-435, in the test with HOP-62 NSCLC, in the test with HL-60(TB) leukemia and in the test on M14 melanoma was more than 100 µM each time.

On to `CCCCCCCCCCCCCCCCOCC(COP(=O)(O)OCC1OC(n2cc(CC)c(=O)[nH]c2=O)CC1O)OC(=O)CCCCCCCCCCCCCCC` (stereo unspecified), for which the concentration for total growth inhibition (TGI) in the test with EKVX NSCLC, in the test with ACHN renal, in the test with LOX IMVI melanoma, in the test with SNB-19 CNS, in the test with PC-3 prostate and in the test with SF-539 CNS was more than 100 µM in each case. Moreover, the TGI with UACC-62 melanoma, with OVCAR-8 ovarian, in the test with HS 578T breast, with TK-10 renal, in the test with NCI-H522 lung and in the test on OVCAR-3 ovarian was more than 100 µM in each case. The concentration for total growth inhibition (TGI) in the test with HOP-92 NSCLC, with SF-268 CNS, with MDA-MB-435, in the test with HOP-62 NSCLC, in the test with HL-60(TB) leukemia and with M14 melanoma was more than 100 µM each time.

Turning to `CC1=C(O)C(=O)C=C2C1=CC=C1[C@@]2(C)CC[C@@]2(C)C3C[C@@H](C)C(=O)[C@@H](O)[C@]3(C)CC[C@]12C` (stereo partly specified), the TGI with EKVX NSCLC was found to be 4.12 µM; in the test on ACHN renal, 3.07 µM; in the test on LOX IMVI melanoma, 3.02 µM; in the test with SNB-19 CNS, 9.23 µM; with PC-3 prostate it was 4.23 µM; in the test with SF-539 CNS, 4.33 µM. The TGI with UACC-62 melanoma is 3.28 µM; in the test on OVCAR-8 ovarian, 5.47 µM; with HS 578T breast, more than 84.8 µM; in the test on TK-10 renal it was 3.82 µM; in the test with NCI-H522 lung, 2.34 µM; in the test with OVCAR-3 ovarian, 3.6 µM. In addition, the total growth inhibition concentration (TGI) is 3.87 µM in the test on HOP-92 NSCLC; 11 µM in the test with SF-268 CNS; 6.6 µM with MDA-MB-435; 11.6 µM in the test on HOP-62 NSCLC; 2.76 µM with HL-60(TB) leukemia; 3.26 µM in the test with M14 melanoma.

For the compound `Clc1ccc(Cc2nc3ccccc3o2)cc1`, the TGI in the test with EKVX NSCLC, with ACHN renal, in the test with LOX IMVI melanoma, with SNB-19 CNS, with PC-3 prostate and with SF-539 CNS was more than 100 µM throughout. Moreover, the TGI in the test with UACC-62 melanoma, in the test on OVCAR-8 ovarian, with HS 578T breast, in the test on TK-10 renal, with NCI-H522 lung and in the test on OVCAR-3 ovarian was more than 100 µM each time. Besides, the TGI in the test with HOP-92 NSCLC, in the test with SF-268 CNS, with MDA-MB-435, in the test on HOP-62 NSCLC, with HL-60(TB) leukemia and with M14 melanoma was more than 100 µM each time.

For `NC(Cc1ccc(CP(=O)(O)O)cc1)C(=O)O` (stereo unspecified), the TGI with EKVX NSCLC, in the test on ACHN renal, in the test on LOX IMVI melanoma, in the test on SNB-19 CNS, with PC-3 prostate and in the test on SF-539 CNS was more than 100 µM throughout. The TGI in the test on UACC-62 melanoma, in the test on OVCAR-8 ovarian, in the test on HS 578T breast, in the test on TK-10 renal, in the test on NCI-H522 lung and in the test with OVCAR-3 ovarian was more than 100 µM each time. Besides, the TGI with HOP-92 NSCLC, with SF-268 CNS, with MDA-MB-435, with HL-60(TB) leukemia and with M14 melanoma was more than 100 µM throughout.

In the case of `CC(C)(C)C(=O)/C=C(\OB(F)F)C(C)(C)C`, the total growth inhibition concentration (TGI) in the test with EKVX NSCLC, in the test with ACHN renal, in the test on LOX IMVI melanoma, in the test with SNB-19 CNS, in the test on PC-3 prostate and in the test on SF-539 CNS was more than 100 µM in each case. Also, the concentration for total growth inhibition (TGI) in the test on OVCAR-8 ovarian, in the test on HS 578T breast, with TK-10 renal, in the test on NCI-H522 lung, in the test on OVCAR-3 ovarian and with HOP-92 NSCLC was more than 100 µM in each case. For the same compound, the TGI in the test with SF-268 CNS, with MDA-MB-435, in the test with HOP-62 NSCLC, with HL-60(TB) leukemia and in the test on M14 melanoma was more than 100 µM in each case.

In general, TGI refers to the concentration at which net growth stops. A low value points to more potent growth arrest.
